{"source": "ChEMBL document CHEMBL1147119", "about": "(2007)", "key": {"[1]": {"assay": "Trough level in BALB/c mouse at 25 mg/kg, ip after 6 hrs", "assay_type": "ADME, organism-based", "settings": "in vivo"}, "Mus musculus [2]": {"tested_on": "Mus musculus", "assay": "Survival of Bacillus anthracis Ames infected BALB/c mouse at 30 mg/kg, ip every 12 hrs for 14 days administered 48 hrs after infection", "assay_type": "functional"}, "Bacillus anthracis": {"tested_on": "Bacillus anthracis", "assay": "Antimicrobial activity against Bacillus anthracis Ames", "assay_type": "functional"}, "[3]": {"assay": "Trough level in BALB/c mouse at 100 mg/kg, ip after 6 hrs", "assay_type": "ADME, organism-based", "settings": "in vivo"}, "[4]": {"assay": "AUC (0-6h) in BALB/c mouse at 25 mg/kg, ip", "assay_type": "ADME, organism-based", "settings": "plasma"}, "[5]": {"assay": "Cmax in BALB/c mouse at 50 mg/kg, ip", "assay_type": "ADME, organism-based", "settings": "in vivo"}, "[6]": {"assay": "Trough level in BALB/c mouse at 50 mg/kg, ip after 6 hrs", "assay_type": "ADME, organism-based", "settings": "in vivo"}, "[7]": {"assay": "Cmax in BALB/c mouse at 100 mg/kg, ip", "assay_type": "ADME, organism-based", "settings": "in vivo"}, "Mus musculus [8]": {"tested_on": "Mus musculus", "assay": "Survival in BALB/c mouse infected with Bacillus anthracis Ames at 30 mg/kg, ip every 12 hrs for 14 days", "assay_type": "functional, organism-based", "parameters": "dose 30 mg/kg"}, "[9]": {"assay": "Cmax in BALB/c mouse at 25 mg/kg, ip", "assay_type": "ADME, organism-based", "settings": "in vivo"}, "[10]": {"assay": "AUC (0-6h) in BALB/c mouse at 100 mg/kg, ip", "assay_type": "ADME, organism-based", "settings": "plasma"}, "Mus musculus [11]": {"tested_on": "Mus musculus", "assay": "Survival of Bacillus anthracis Ames infected BALB/c mouse at 30 mg/kg, ip every 12 hrs for 14 days administered 36 hrs after infection", "assay_type": "functional"}, "[12]": {"assay": "AUC (0-6h) in BALB/c mouse at 50 mg/kg, ip", "assay_type": "ADME, organism-based", "settings": "plasma"}, "Mus musculus [13]": {"tested_on": "Mus musculus", "assay": "Survival in BALB/c mouse infected with Bacillus anthracis Ames at 40 mg/kg every 6 hrs for 14 days", "assay_type": "functional, organism-based", "parameters": "dose 40 mg/kg"}}, "note": "Activity calls are given as the source filed them. No cut-off for these calls is given here.", "data": [{"smiles": "O=C(O)c1cn(C2CC2)c2cc(N3CCNCC3)c(F)cc2c1=O", "note": "[CIPROFLOXACIN]", "values": [{"measurement": "concentration at 6 h", "setting": "[1]", "value": 1000, "unit": "ng/mL"}, {"measurement": "survival at 30 mg/kg", "setting": "Mus musculus [2]", "value": 80, "unit": "%"}, {"measurement": "MIC", "setting": "Bacillus anthracis", "value": 0.25, "unit": "µg/mL"}, {"measurement": "concentration at 6 h", "setting": "[3]", "value": 1670, "unit": "ng/mL"}, {"measurement": "AUC(0-t) at 6 h", "setting": "[4]", "value": 6600, "unit": "ng·h/mL"}, {"measurement": "Cmax", "setting": "[5]", "value": 10700, "unit": "ng/mL"}, {"measurement": "concentration at 6 h", "setting": "[6]", "value": 1830, "unit": "ng/mL"}, {"measurement": "Cmax", "setting": "[7]", "value": 20000, "unit": "ng/mL"}, {"measurement": "Activity", "setting": "Mus musculus [8]", "value": "Active"}, {"measurement": "Cmax", "setting": "[9]", "value": 6600, "unit": "ng/mL"}, {"measurement": "AUC(0-t) at 6 h", "setting": "[10]", "value": 37700, "unit": "ng·h/mL"}, {"measurement": "survival at 30 mg/kg", "setting": "Mus musculus [11]", "value": 80, "unit": "%"}, {"measurement": "AUC(0-t) at 6 h", "setting": "[12]", "value": 14100, "unit": "ng·h/mL"}]}, {"smiles": "C[C@H]1c2cccc(O)c2C(=O)C2=C(O)[C@]3(O)C(=O)C(C(N)=O)=C(O)[C@@H](N(C)C)[C@@H]3[C@@H](O)[C@@H]21.O", "note": "[DOXYCYCLINE]", "values": [{"measurement": "concentration at 6 h", "setting": "[1]", "value": 1330, "unit": "ng/mL"}, {"measurement": "MIC", "setting": "Bacillus anthracis", "value": 0.03, "unit": "µg/mL"}, {"measurement": "Activity", "setting": "Mus musculus [13]", "value": "Active"}, {"measurement": "concentration at 6 h", "setting": "[3]", "value": 6000, "unit": "ng/mL"}, {"measurement": "AUC(0-t) at 6 h", "setting": "[4]", "value": 13700, "unit": "ng·h/mL"}, {"measurement": "Cmax", "setting": "[5]", "value": 6700, "unit": "ng/mL"}, {"measurement": "concentration at 6 h", "setting": "[6]", "value": 1670, "unit": "ng/mL"}, {"measurement": "Cmax", "setting": "[7]", "value": 12000, "unit": "ng/mL"}, {"measurement": "Cmax", "setting": "[9]", "value": 4000, "unit": "ng/mL"}, {"measurement": "AUC(0-t) at 6 h", "setting": "[10]", "value": 57200, "unit": "ng·h/mL"}, {"measurement": "AUC(0-t) at 6 h", "setting": "[12]", "value": 23400, "unit": "ng·h/mL"}]}]}
